Broadly, the IC50 is the concentration needed to halve the response being measured.

Read-outs that look alike come from different tables or passages of the source.

For one experiment, the target named is T1, human SGLT2 (Homo sapiens, UniProt P31639).
T1 construct: A full-length cDNA clone expressing human SGLT2
T1 sequence (P31639 1-672): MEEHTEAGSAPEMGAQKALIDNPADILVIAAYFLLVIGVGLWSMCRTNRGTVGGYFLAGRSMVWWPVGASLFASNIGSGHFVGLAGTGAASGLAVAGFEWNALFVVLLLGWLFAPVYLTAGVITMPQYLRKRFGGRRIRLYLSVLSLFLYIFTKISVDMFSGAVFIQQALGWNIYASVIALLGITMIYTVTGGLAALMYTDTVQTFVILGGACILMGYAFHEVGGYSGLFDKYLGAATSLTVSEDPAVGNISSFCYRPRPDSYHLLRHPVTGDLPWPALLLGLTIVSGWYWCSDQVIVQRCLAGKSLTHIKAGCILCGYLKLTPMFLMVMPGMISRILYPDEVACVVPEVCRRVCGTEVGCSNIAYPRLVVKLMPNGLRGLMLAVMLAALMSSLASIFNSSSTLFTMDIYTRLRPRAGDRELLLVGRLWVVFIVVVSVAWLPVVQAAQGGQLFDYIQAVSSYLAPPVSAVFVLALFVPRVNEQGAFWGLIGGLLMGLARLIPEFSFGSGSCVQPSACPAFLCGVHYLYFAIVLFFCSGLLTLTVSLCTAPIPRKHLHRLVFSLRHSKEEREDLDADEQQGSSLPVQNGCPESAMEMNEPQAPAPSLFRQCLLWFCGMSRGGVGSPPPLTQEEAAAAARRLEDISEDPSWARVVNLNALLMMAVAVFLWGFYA
The experiment in a line: Methyl-α-D-[U-14C]glucopyranoside uptake assay, SGLT2. The format is cell-based. The note with it: HEK293.ETN cells stably expressing human SGLT2, sodium-dependent uptake, 1.5 h incubation. The text has this:
A full-length cDNA clone expressing human SGLT2 (GenScript Corporation) was subcloned into Hind III and Not I sites of pEAK15 expression vector. Clones harboring the cDNA inserts were identified by restriction analysis.
Plasmid containing human SGLT2 was linearized with Nsi I and purified by agarose gel electrophoresis. Using Lipofectamine 2000 Transfection Reagent (Invitrogen Corporation), DNA was transfected into HEK293.ETN cells and cultured in Dulbecco's Modified Eagle Medium (DMEM) containing 10% fetal bovine serum (FBS) at 37° C. under 5% CO2 for 24 h. Transfectants were selected in the same growth medium supplemented with puromycin (Invitrogen Corporation) for two weeks. Puromycin-resistant cells were recovered and seeded on a fresh 96-well plate (single cell per well) and cultured in the presence of puromycin until cells became confluent. Puromycin-resistant clones were evaluated for SGLT2 activity in the methyl-α-D-[U-^14C]glucopyranoside uptake assay described below.
(§1) Cells expressing SGLT1 or SGLT2 were seeded on 96-well ScintiPlate scintillating plates (PerkinElmer, Inc.) in DMEM containing 10% FBS (1×10^5 cells per well in 100 μl medium) incubated at 37° C. under 5% CO2 for 48 h prior to the assay. Cells were washed twice with 150 μl of either sodium buffer (137 mM NaCl, 5.4 mM KCl, 2.8 mM CaCl2, 1.2 mM MgCl2, 10 mM tris(hydroxymethyl)aminomethane/N-2-hydroxyethylpiperazine-N′-ethanesulfonic acid [Tris/Hepes], pH 7.2) or sodium-free buffer (137 mM N-methyl-glucamine, 5.4 mM KCl, 2.8 mM CaCl2, 1.2 mM MgCl2, 10 mM Tris/Hepes, pH 7.2). Test compound in 50 μl each of sodium or sodium-free buffer containing 40 μCi/ml methyl-α-D-[U-^14C]glucopyranoside (Amersham Biosciences/GE Healthcare) was added per well of a 96-well plate and incubated at 37° C. with shaking for either 2 h (SGLT1 assay) or 1.5 h (SGLT2 assay). Cells were washed twice with 150 μl of wash buffer (137 mM N-methylglucamine, 10 mM Tris/Hepes, pH 7.2) and methyl-α-D-[U-^14C]glucopyranoside uptake was quantitated using a TopCount scintillation counter (PerkinElmer, Inc.). Sodium-dependent glucopyranoside uptake was measured by subtracting the values obtained with sodium-free buffer from those obtained using sodium buffer (average of triplicate determinations).

The next experiment deals with T2, human SGLT1 (Homo sapiens, UniProt P13866).
T2 construct: Full-length human SGLT1 cDNA on pDream2.1 expression vector; host or cells: COS-7 cells
T2 sequence (P13866 1-664): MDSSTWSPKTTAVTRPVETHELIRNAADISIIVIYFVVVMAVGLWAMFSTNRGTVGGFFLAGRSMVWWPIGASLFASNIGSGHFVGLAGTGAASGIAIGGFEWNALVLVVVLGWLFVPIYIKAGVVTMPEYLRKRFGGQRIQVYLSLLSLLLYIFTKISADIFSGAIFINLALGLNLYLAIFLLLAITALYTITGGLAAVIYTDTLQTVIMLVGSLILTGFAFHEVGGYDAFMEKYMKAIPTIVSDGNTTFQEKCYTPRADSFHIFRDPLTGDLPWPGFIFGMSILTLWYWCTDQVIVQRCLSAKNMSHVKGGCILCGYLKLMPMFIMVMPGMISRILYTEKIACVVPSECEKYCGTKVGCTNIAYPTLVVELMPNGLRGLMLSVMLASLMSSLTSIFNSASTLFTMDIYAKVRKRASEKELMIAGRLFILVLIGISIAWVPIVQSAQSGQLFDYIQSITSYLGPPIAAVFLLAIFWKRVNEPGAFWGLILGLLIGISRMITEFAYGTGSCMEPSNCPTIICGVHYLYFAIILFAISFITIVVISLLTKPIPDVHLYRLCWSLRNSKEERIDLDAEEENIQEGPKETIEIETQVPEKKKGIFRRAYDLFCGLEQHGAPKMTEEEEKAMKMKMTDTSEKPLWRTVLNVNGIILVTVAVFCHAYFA
The experiment in a line: Methyl-α-D-[U-14C]glucopyranoside uptake assay, SGLT1. Type of experiment: cell-based. Particulars: COS-7 cells transfected with human SGLT1; sodium-dependent uptake, 2 h incubation. As for the experimental part: Full-length human SGLT1 cDNA on pDream2.1 expression vector was obtained from GenScript Corporation and propagated in Escherichia coli strain DH5α using Luria-Bertani (LB) medium containing ampicillin. Plasmid DNA was isolated using the QIAGEN Plasmid Midi Kit (QIAGEN Inc.). […] Transfected cells were stored in DMEM containing 10% dimethyl sulfoxide (DMSO) at −80° C.
as §1

`CCOc1ccc(Cc2cc3c(cc2Cl)CO[C@]32O[C@H](CO)[C@@H](O)[C@H](O)[C@H]2O)cc1` [Compound H, (1S,3′R,4′S,5′S,6′R)-5-chloro-6-(4-ethoxybenzyl)-6′-(hydroxymethyl)-3′,4′,5′,6′-tetrahydro-3H-spiro[isobenzofuran-1,2′-pyran]-3′,4′,5′-triol]: the IC50 on human SGLT2 (read-out: IC50 SGLT2) is less than 1 µM; on human SGLT2 (read-out: SGLT2 IC50), 0.0051 µM; against human SGLT1, 1 to 10 µM.

For the compound `CCc1ccc(Cc2cc3c(cc2Cl)CO[C@]32O[C@H](COCC(F)(F)F)[C@@H](O)[C@H](O)[C@H]2O)cc1` [Compound AI, (1S,3′R,4′S,5′S,6′R)-5-chloro-6-(4-ethylbenzyl)-6′-((2,2,2-trifluoroethoxy)methyl)-3′,4′,5′,6′-tetrahydro-3H-spiro[isobenzofuran-1,2′-pyran]-3′,4′,5′-triol], the IC50 was less than 1 µM at human SGLT2 (read-out: IC50 SGLT2) and more than 10 µM against human SGLT1.

As for `CCc1ccc(Cc2cc3c(cc2Cl)CO[C@]32O[C@H](CO)[C@@H](O)[C@H](O)[C@H]2O)cc1` [Compound K, (1S,3′R,4′S,5′S,6′R)-5-chloro-6-(4-ethylbenzyl)-6′-(hydroxymethyl)-3′,4′,5′,6′-tetrahydro-3H-spiro[isobenzofuran-1,2′-pyran]-3′,4′,5′-triol], the IC50 on human SGLT2 (read-out: IC50 SGLT2) and on human SGLT1 was less than 1 µM throughout.

On to `CCc1ccc(Cc2cc3c(cc2Cl)CO[C@]32O[C@H](CNC(C)=O)[C@@H](O)[C@H](O)[C@H]2O)cc1` [Compound AM, N-(((1S,3′R,4′S,5′S,6′R)-5-chloro-6-(4-ethylbenzyl)-3′,4′,5′-trihydroxy-3′,4′,5′,6′-tetrahydro-3H-spiro[isobenzofuran-1,2′-pyran]-6′-yl)methyl)acetamide], for which the IC50 on human SGLT2 (read-out: IC50 SGLT2) is less than 1 µM; on human SGLT1, 1 to 10 µM.

`CCc1ccc(Cc2cc3c(cc2Cl)C(OC)C[C@]32O[C@H](CO)[C@@H](O)[C@H](O)[C@H]2O)cc1` (stereo partly drawn) [Compound BD, (1S,3′R,4′S,5′S,6′R)-5-chloro-6-(4-ethylbenzyl)-6′-(hydroxymethyl)-3-methoxy-2,3,3′,4′,5′,6′-hexahydrospiro[indene-1,2′-pyran]-3′,4′,5′-triol]: the figures for the IC50 on human SGLT2 (read-out: IC50 SGLT2) and at human SGLT1 were less than 1 µM and more than 10 µM, respectively.

Consider `CCc1ccc(Cc2cc3c(cc2Cl)CC[C@]32O[C@H](CO)[C@@H](O)[C@H](O)[C@H]2O)cc1` [Compound AV, (1S,3′R,4′S,5′S,6′R)-5-chloro-6-(4-ethylbenzyl)-6′-(hydroxymethyl)-2,3,3′,4′,5′,6′-hexahydrospiro[indene-1,2′-pyran]-3′,4′,5′-triol], for which the IC50 was less than 1 µM at human SGLT2 (read-out: IC50 SGLT2) and 1 to 10 µM against human SGLT1.

As for `OC[C@H]1O[C@]2(CCc3cc(Cl)c(Cc4ccc(O[C@H]5CCOC5)cc4)cc32)[C@H](O)[C@@H](O)[C@@H]1O` [Compound BG, (1S,3′R,4′S,5′S,6′R)-5-chloro-6′-(hydroxymethyl)-6-(4-((S)-tetrahydrofuran-3-yloxy)benzyl)-2,3,3′,4′,5′,6′-hexahydrospiro[indene-1,2′-pyran]-3′,4′,5′-triol], the IC50 on human SGLT2 (read-out: IC50 SGLT2) was less than 1 µM; on human SGLT1, more than 10 µM.

`CCc1ccc(Cc2cc3c(cc2Cl)C(O)C[C@]32O[C@H](CO)[C@@H](O)[C@H](O)[C@H]2O)cc1` (stereo partly drawn) [Compound BB, (1S,3′R,4′S,5′S,6′R)-5-chloro-6-(4-ethylbenzyl)-6′-(hydroxymethyl)-2,3,3′,4′,5′,6′-hexahydrospiro[indene-1,2′-pyran]-3,3′,4′,5′-tetraol]: the IC50 on human SGLT2 (read-out: IC50 SGLT2) is less than 1 µM; against human SGLT1, more than 10 µM.

Regarding `CCc1ccc(Cc2cc3c(cc2Cl)C(CCO)C[C@]32O[C@H](CO)[C@@H](O)[C@H](O)[C@H]2O)cc1` (stereo partly drawn) [Compound BA, (1S,3′R,4′S,5′S,6′R)-5-chloro-6-(4-ethylbenzyl)-3-(2-hydroxyethyl)-6′-(hydroxymethyl)-2,3,3′,4′,5′,6′-hexahydrospiro[indene-1,2′-pyran]-3′,4′,5′-triol], the results for the IC50 at human SGLT2 (read-out: IC50 SGLT2) and against human SGLT1 were less than 1 µM and more than 10 µM, respectively.

Turning to `CCc1ccc(Cc2cc3c(cc2Cl)CO[C@]32O[C@H](COC(C)=O)[C@@H](O)[C@H](O)[C@H]2O)cc1` [Compound AH, ((1S,3′R,4′S,5′S,6′R)-5-chloro-6-(4-ethylbenzyl)-3′,4′,5′-trihydroxy-3′,4′,5′,6′-tetrahydro-3H-spiro[isobenzofuran-1,2′-pyran]-6′-yl)methyl acetate], the figures for the IC50 on human SGLT2 (read-out: IC50 SGLT2) and against human SGLT1 were less than 1 µM and 1 to 10 µM, respectively.

`CCOc1ccc(Cc2ccc3c(c2)[C@]2(OC3)O[C@H](CO)[C@@H](O)[C@H](O)[C@H]2O)cc1` [Compound G, (1S,3′R,4′S,5′S,6′R)-6-(4-ethoxybenzyl)-6′-(hydroxymethyl)-3′,4′,5′,6′-tetrahydro-3H-spiro[isobenzofuran-1,2′-pyran]-3′,4′,5′-triol]: the values for the IC50 on human SGLT2 (read-out: IC50 SGLT2), on human SGLT2 (read-out: SGLT2 IC50) and against human SGLT1 were less than 1 µM, 0.071 µM and more than 10 µM, respectively.

For the compound `CCc1ccc(C(=O)c2cc3c(cc2Cl)CO[C@]32O[C@H](CO)[C@@H](O)[C@H](O)[C@H]2O)cc1` [Compound AQ, ((1S,3′R,4′S,5′S,6′R)-5-chloro-3′,4′,5′-trihydroxy-6′-(hydroxymethyl)-3′,4′,5′,6′-tetrahydro-3H-spiro[isobenzofuran-1,2′-pyran]-6-yl)(4-ethylphenyl)methanone], the IC50 at human SGLT2 (read-out: IC50 SGLT2) is less than 1 µM; on human SGLT1, more than 10 µM.

As for `CCc1ccc(Cc2cc3c(cc2Cl)CO[C@]32O[C@H](COC)[C@@H](O)[C@H](O)[C@H]2O)cc1` [Compound AG, (1S,3′R,4′S,5′S,6′R)-5-chloro-6-(4-ethylbenzyl)-6′-(methoxymethyl)-3′,4′,5′,6′-tetrahydro-3H-spiro[isobenzofuran-1,2′-pyran]-3′,4′,5′-triol], the IC50 on human SGLT2 (read-out: IC50 SGLT2) was less than 1 µM; on human SGLT1, 1 to 10 µM.

With `CCc1ccc(Cc2cc3c(cc2Cl)C(F)C[C@]32O[C@H](CO)[C@@H](O)[C@H](O)[C@H]2O)cc1` (stereo partly drawn) [Compound BE, (1S,3′R,4′S,5′S,6′R)-5-chloro-6-(4-ethylbenzyl)-3-fluoro-6′-(hydroxymethyl)-2,3,3′,4′,5′,6′-hexahydrospiro[indene-1,2′-pyran]-3′,4′,5′-triol], the IC50 is less than 1 µM on human SGLT2 (read-out: IC50 SGLT2) and more than 10 µM on human SGLT1.
